Test results published in patent publication US11807644B2 (PMV Pharmaceuticals, Inc., priority 2020, dated 2023).

Target: T1, recombinant His-tag Y220C p53 DBD protein (Homo sapiens, UniProt P04637, Y220C)
T1 construct: recombinant His-tag Y220C p53 DBD protein (amino acids #˜94-312)
Test: In vitro DNA binding activity assay (TR-FRET): binding of His-tag Y220C p53 DBD to biotin-labeled consensus DNA
Format: biochemical
Conditions: SC150 = concentration to increase DNA binding by […], His-tag Y220C p53 DBD, biotin-labeled consensus DNA

| Y220C SC150 (μM) | SMILES |
| --- | --- |
| * (* = 0 μM ≤ SC150 < 0.1 μM) | CN1CC[C@@H](Nc2cccc3c2cc(-c2noc(CNC(=O)c4ccn(C5CCC(F)C5)c4)n2)n3CC(F)(F)F)[C@@H](F)C1 (stereo partly drawn) [Compound 345B, N-{[3-(4-{[(3S,4R)-3-fluoro-1-methylpiperidin-4-yl]amino}-1-(2,2,2-trifluoroethyl)-1H-indol-2-yl)-1,2,4-oxadiazol-5-yl]methyl}-1-(3-fluorocyclopentyl)-1H-pyrrole-3-carboxamide] |
| * (* = 0 μM ≤ SC150 < 0.1 μM) | CN1CC[C@@H](Nc2cccc3c2cc(-c2noc(CNC(=O)c4ccn(C5CCC(F)(F)C5)c4)n2)n3CC(F)(F)F)[C@@H](F)C1 (stereo partly drawn) [Compound 347B, 1-(3,3-difluorocyclopentyl)-N-{[3-(4-{[(3S,4R)-3-fluoro-1-methylpiperidin-4-yl]amino}-1-(2,2,2-trifluoroethyl)-1H-indol-2-yl)-1,2,4-oxadiazol-5-yl]methyl)-1H-pyrrole-3-carboxamide] |
| * (* = 0 μM ≤ SC150 < 0.1 μM) | CN1CCC(n2ccc(C(=O)NCc3nc(-c4cc5c(N[C@@H]6CCN(C)C[C@@H]6F)cccc5n4CC(F)(F)F)no3)c2)C1 (some centres unmarked) [Compound 351B] |
| * (* = 0 μM ≤ SC150 < 0.1 μM) | CC(C)(C)n1cc(C(=O)NCc2nc(-c3cc4c(N[C@H]5CCCNC5)cccc4n3CC(F)(F)F)no2)cn1 [Compound 353B] |
| * (* = 0 μM ≤ SC150 < 0.1 μM) | CC(C)(C)n1ccc(C(=O)NCc2nc(-c3cc4c(N[C@H]5CC[C@H](F)CC5)cccc4n3CC(F)(F)F)no2)c1 [Compound 354B, 1-tert-butyl-N-{[3-(4-{[(1r,4r)-4-fluorocyclohexyl]amino}-1-(2,2,2-trifluoroethyl)-1H-indol-2-yl)-1,2,4-oxadiazol-5-yl]methyl}-1H-pyrrole-3-carboxamide] |
| * (* = 0 μM ≤ SC150 < 0.1 μM) | CC(C)(C)n1ccc(C(=O)NCc2nc(-c3cc4c(N[C@H]5CCC(=O)NC5)cccc4n3CC(F)(F)F)no2)c1 [Compound 356B, 1-tert-butyl-N-{[3-(4-{[(3S)-6-oxopiperidin-3-yl]amino}-1-(2,2,2-trifluoroethyl)-1H-indol-2-yl)-1,2,4-oxadiazol-5-yl]methyl}-1H-pyrrole-3-carboxamide] |
| * (* = 0 μM ≤ SC150 < 0.1 μM) | CCN1CC[C@@H](Nc2cccc3c2cc(-c2noc(CNC(=O)c4ccn(CC(=O)N(C)C)c4)n2)n3CC(F)(F)F)[C@@H](F)C1 [Compound 365B, 1-[(dimethylcarbamoyl)methyl]-N-{[3-(4-{[(3S,4R)-1-ethyl-3-fluoropiperidin-4-yl]amino}-1-(2,2,2-trifluoroethyl)-1H-indol-2-yl)-1,2,4-oxadiazol-5-yl]methyl}-1H-pyrrole-3-carboxamide] |
| * (* = 0 μM ≤ SC150 < 0.1 μM) | CC(C)(C)n1ccc(C(=O)NCc2nc(-c3cc4c(NC5CCn6ccnc6C5)cccc4n3CC(F)(F)F)no2)c1 (centres unmarked) [Compound 366B, 1-tert-butyl-N-({3-[4-({5H,6H, 7H,8H-imidazo[1,2-a]pyridin-7-yl}amino)-1-(2,2,2-trifluoroethyl)-1H-indol-2-yl]-1,2,4-oxadiazol-5-yl}methyl)-1H-pyrrole-3-carboxamide] |
| * (* = 0 μM ≤ SC150 < 0.1 μM) | CC(C)(C)n1ccc(C(=O)NCc2nc(-c3cc4c(N[C@@H]5CCC(=O)NC5)cccc4n3CC(F)(F)F)no2)c1 [Compound 367B, 1-tert-butyl-N-{[3-(4-{[(3R)-6-oxopiperidin-3-yl]amino}-1-(2,2,2-trifluoroethyl)-1H-indol-2-yl)-1,2,4-oxadiazol-5-yl]methyl}-1H-pyrrole-3-carboxamide] |
| * (* = 0 μM ≤ SC150 < 0.1 μM) | CN1CC[C@@H](Nc2cccc3c2cc(-c2noc(CNC(=O)c4ccn(C5COC5)c4)n2)n3CC(F)(F)F)[C@@H](F)C1 [Compound 379B, N-{[3-(4-{[(3S,4R)-3-fluoro-1-methylpiperidin-4-yl]amino}-1-(2,2,2-trifluoroethyl)-1H-indol-2-yl)-1,2,4-oxadiazol-5-yl]methyl}-1-(oxetan-3-yl)-1H-pyrrole-3-carboxamide] |
| * (* = 0 μM ≤ SC150 < 0.1 μM) | COCC(C)(C)n1ccc(C(=O)NCc2nc(-c3cc4c(N[C@@H]5CCN(C)C[C@@H]5F)cccc4n3CC(F)(F)F)no2)c1 [Compound 383B, N-{[3-(4-{[(3S,4R)-3-fluoro-1-methylpiperidin-4-yl]amino}-1-(2,2,2-trifluoroethyl)-1H-indol-2-yl)-1,2,4-oxadiazol-5-yl]methyl}-1-(1-methoxy-2-methylpropan-2-yl)-1H-pyrrole-3-carboxamide] |
| * (* = 0 μM ≤ SC150 < 0.1 μM) | CN1CC[C@@H](Nc2cccc3c2cc(-c2noc(CNC(=O)c4ccn(C5(C)COC5)c4)n2)n3CC(F)(F)F)[C@@H](F)C1 [Compound 386B, N-{[3-(4-{[(3S,4R)-3-fluoro-1-methylpiperidin-4-yl]amino}-1-(2,2,2-trifluoroethyl)-1H-indol-2-yl)-1,2,4-oxadiazol-5-yl]methyl}-1-(3-methyloxetan-3-yl)-1H-pyrrole-3-carboxamide] |

More lines, now with the values behind:

| SMILES | Y220C SC150 (μM) |
| --- | --- |
| CN1CC[C@@H](Nc2cccc3c2cc(-c2noc(CNC(=O)c4cnn(C5CCC(F)(F)C5)c4)n2)n3CC(F)(F)F)[C@@H](F)C1 (stereo partly drawn) [Compound 344B, 1-(3,3-difluorocyclopentyl)-N-{[3-(4-{1[(3S,4R)-3-fluoro-1-methylpiperidin-4-yl]amino}-1-(2,2,2-trifluoroethyl)-1H-indol-2-yl)-1,2,4-oxadiazol-5-yl]methyl}-1H-pyrazole-4-carboxamide] | * (* = 0 μM ≤ SC150 < 0.1 μM) |
| CCN1CC[C@@H](Nc2cccc3c2cc(-c2noc(CNC(=O)c4ccn(C5CCC(F)(F)C5)c4)n2)n3CC(F)(F)F)[C@@H](F)C1 (stereo partly drawn) [Compound 346B, 1-(3,3-difluorocyclopentyl)-N-{[3-(4-{[(3S,4R)-1-ethyl-3-fluoropiperidin-4-yl]amino}-1-(2,2,2-trifluoroethyl)-1H-indol-2-yl)-1,2,4-oxadiazol-5-yl]methyl}-1H-pyrrole-3-carboxamide] | * (* = 0 μM ≤ SC150 < 0.1 μM) |
| CN1CCC(n2cc(C(=O)NCc3nc(-c4cc5c(N[C@@H]6CCN(C)C[C@@H]6F)cccc5n4CC(F)(F)F)no3)cn2)C1 (stereo partly drawn) [Compound 349B, N-{[3-(4-{1[(3S,4R)-3-fluoro-1-methylpiperidin-4-yl]amino}-1-(2,2,2-trifluoroethyl)-1H-indol-2-yl)-1,2,4-oxadiazol-5-yl]methyl}-1-(1-methylpyrrolidin-3-yl)-1H-pyrazole-4-carboxamide] | * (* = 0 μM ≤ SC150 < 0.1 μM) |
| CN1CCC(n2cc(C(=O)NCc3nc(-c4cc5c(N[C@@H]6CCN(C)C[C@@H]6F)cccc5n4CC(F)(F)F)no3)cn2)CC1 [Compound 350B, N-{[3-(4-{1[(3S,4R)-3-fluoro-1-methylpiperidin-4-yl]amino}-1-(2,2,2-trifluoroethyl)-1H-indol-2-yl)-1,2,4-oxadiazol-5-yl]methyl}-1-(1-methylpiperidin-4-yl)-1H-pyrazole-4-carboxamide] | * (* = 0 μM ≤ SC150 < 0.1 μM) |
| CN1CCC(n2ccc(C(=O)NCc3nc(-c4cc5c(N[C@@H]6CCN(C)C[C@@H]6F)cccc5n4CC(F)(F)F)no3)c2)CC1 [Compound 363B, N-{[3-(4-{[(3S,4R)-3-fluoro-1-methylpiperidin-4-yl]amino)-1-(2,2,2-trifluoroethyl)-1H-indol-2-yl)-1,2,4-oxadiazol-5-yl]methyl)-1-(1-methylpiperidin-4-yl)-1H-pyrrole-3-carboxamide] | * (* = 0 μM ≤ SC150 < 0.1 μM) |
| Cc1nc2c(s1)CC(Nc1cccc3c1cc(-c1noc(CNC(=O)c4ccn(C(C)(C)C)c4)n1)n3CC(F)(F)F)CC2 (centres unmarked) [Compound 368B, 1-tert-butyl-N-[(3-{4-[(2-methyl-4,5,6,7-tetrahydro-1,3-benzothiazol-6-yl)amino]-1-(2,2,2-trifluoroethyl)-1H-indol-2-yl}-1,2,4-oxadiazol-5-yl)methyl]-1H-pyrrole-3-carboxamide] | *** (*** = 0.5 μM ≤ SC150 < 1 μM) |
| CN1CC[C@@H](Nc2cccc3c2cc(-c2noc(CNC(=O)c4cnn(C5CCC5)c4)n2)n3CC(F)(F)F)[C@@H](F)C1 [Compound 369B, 1-cyclobutyl-N-{[3-(4-{1[(3S,4R)-3-fluoro-1-methylpiperidin-4-yl]amino}-1-(2,2,2-trifluoroethyl)-1H-indol-2-yl)-1,2,4-oxadiazol-5-yl]methyl}-1H-pyrazole-4-carboxamide] | * (* = 0 μM ≤ SC150 < 0.1 μM) |
| CN1CC[C@@H](Nc2cccc3c2cc(-c2noc(CNC(=O)c4ccn(C5(C)CCOCC5)c4)n2)n3CC(F)(F)F)[C@@H](F)C1 [Compound 371B, N-{[3-(4-{[(3S,4R)-3-fluoro-1-methylpiperidin-4-yl]amino}-1-(2,2,2-trifluoroethyl)-1H-indol-2-yl)-1,2,4-oxadiazol-5-yl]methyl}-1-(4-methyloxan-4-yl)-1H-pyrrole-3-carboxamide] | * (* = 0 μM ≤ SC150 < 0.1 μM) |
| CN1CC[C@@H](Nc2cccc3c2cc(-c2noc(CNC(=O)c4cnn(C5COC5)c4)n2)n3CC(F)(F)F)[C@@H](F)C1 [Compound 372B, N-{[3-(4-{[(3S,4R)-3-fluoro-1-methylpiperidin-4-yl]amino}-1-(2,2,2-trifluoroethyl)-1H-indol-2-yl)-1,2,4-oxadiazol-5-yl]methyl}-1-(oxetan-3-yl)-1H-pyrazole-4-carboxamide] | * (* = 0 μM ≤ SC150 < 0.1 μM) |
| COc1ccc(NCc2nc(-c3cc4c(N[C@@H]5CCN(C)C[C@@H]5F)cccc4n3CC(F)(F)F)no2)nc1 [Compound 378B, N-[(3S,4R)-3-fluoro-1-methylpiperidin-4-yl]-2-(5-{[(5-methoxypyridin-2-yl)amino]methyl}-1,2,4-oxadiazol-3-yl)-1-(2,2,2-trifluoroethyl)-1H-indol-4-amine] | * (* = 0 μM ≤ SC150 < 0.1 μM) |
| COc1ccc(NCc2nc(-c3cc4c(N[C@@H]5CCN(C)C[C@@H]5F)cccc4n3CC(F)(F)F)no2)cc1 [Compound 380B, N-[(3S,4R)-3-fluoro-1-methylpiperidin-4-yl]-2-(5-{[(4-methoxyphenyl)amino]methyl}-1,2,4-oxadiazol-3-yl)-1-(2,2,2-trifluoroethyl)-1H-indol-4-amine] | * (* = 0 μM ≤ SC150 < 0.1 μM) |
